Measurements published in PubChem BioAssay AID292 (DTP/NCI, 2004).
Values joined by “and” are separate entries in the source; they are usually repeats but may differ in a detail not shown here. Equal values may be shown once. Inconclusive results and toxic doses are left out.

Test system: B6C3F1 mice, ip Sarcoma M5076, median survival T/C
Assay: NCI In Vivo Anticancer Drug Screen. Data for tumor model Sarcoma M5076 (intraperitoneal) in B6C3F1 mice
Conditions: endpoint: median survival time, higher = longer survival
Outline: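 The readout is a ratio of survival in drug-treated animals to survival in animals given vehicle alone, taken in mice bearing a transplanted tumour line.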

[1] = dose: 50.0 mg/kg/injection, schedule: Q04DX004 (ip), vehicle: Klucel (hydroxypropylcellulose) (HPC)
[2] = dose: 100.0 mg/kg/injection, schedule: Q04DX004 (ip), vehicle: Klucel (hydroxypropylcellulose) (HPC)
[3] = dose: 200.0 mg/kg/injection, schedule: Q04DX004 (ip), vehicle: Klucel (hydroxypropylcellulose) (HPC)
[4] = dose: 400.0 mg/kg/injection, schedule: Q04DX004 (ip), vehicle: Klucel (hydroxypropylcellulose) (HPC)
[5] = dose: 800.0 mg/kg/injection, schedule: Q04DX004 (ip), vehicle: Klucel (hydroxypropylcellulose) (HPC)
[6] = dose: 25.0 mg/kg/injection, schedule: Q04DX004 (ip), vehicle: saline with Tween-80
[7] = dose: 50.0 mg/kg/injection, schedule: Q04DX004 (ip), vehicle: saline with Tween-80
[8] = dose: 100.0 mg/kg/injection, schedule: Q04DX004 (ip), vehicle: saline with Tween-80
[9] = dose: 200.0 mg/kg/injection, schedule: Q04DX004 (ip), vehicle: saline with Tween-80

O=c1oc2c(O)c(O)cc3c(=O)oc4c(O)c(O)cc1c4c23
T/C (dose: 75.0 mg/kg/injection, schedule: Q04DX004 (ip), vehicle: Klucel (hydroxypropylcellulose) (HPC)): 123 % of control
T/C (dose: 150.0 mg/kg/injection, schedule: Q04DX004 (ip), vehicle: Klucel (hydroxypropylcellulose) (HPC)): 115 % of control
T/C (dose: 300.0 mg/kg/injection, schedule: Q04DX004 (ip), vehicle: Klucel (hydroxypropylcellulose) (HPC)): 120 % of control
T/C (dose: 600.0 mg/kg/injection, schedule: Q04DX004 (ip), vehicle: Klucel (hydroxypropylcellulose) (HPC)): 111 % of control
T/C (dose: 1200.0 mg/kg/injection, schedule: Q04DX004 (ip), vehicle: Klucel (hydroxypropylcellulose) (HPC)): 108 % of control

CC(=O)C1C(=O)C(=O)N(c2ccc(C)cc2C)C1=O (centres undefined)
T/C [1]: 102 % of control
T/C [2]: 98 % of control

CC(CN1CC(=O)NC(=O)C1)N1CC(=O)NC(=O)C1 (centres undefined)
T/C (dose: 25.0 mg/kg/injection, schedule: Q04DX005 (ip), vehicle: saline with Tween-80): 118 % of control
T/C (dose: 50.0 mg/kg/injection, schedule: Q04DX005 (ip), vehicle: saline with Tween-80): 103 % of control

CC(=O)C1C(=O)C(=O)N(c2ccccc2C)C1=O (centres undefined)
T/C [1]: 104 % of control
T/C [2]: 93 % of control
T/C [3]: 102 % of control
T/C [4]: 108 % of control

CCCCCCN1CCN(Cc2ccc(N(CC)CC)cc2)C(=O)C1=O
T/C (dose: 25.0 mg/kg/injection, schedule: Q04DX004 (ip), vehicle: Klucel (hydroxypropylcellulose) (HPC)): 95 % of control
T/C [1]: 107 % of control

N#CC1C(=O)NC(=O)C(C#N)C1c1cccc(O)c1 (centres undefined)
T/C [1]: 95 % of control
T/C [2]: 102 % of control
T/C [3]: 99 % of control
T/C [4]: 95 % of control
T/C [5]: 109 % of control

CCOc1ccc(C(C)c2cc3c(cc2OC)OCO3)cc1 (centres undefined)
T/C (dose: 62.5 mg/kg/injection, schedule: Q04DX004 (ip), vehicle: distilled water + Tween-80): 99 % of control and 102 % of control
T/C (dose: 125.0 mg/kg/injection, schedule: Q04DX004 (ip), vehicle: distilled water + Tween-80): 102 % of control and 124 % of control
T/C (dose: 250.0 mg/kg/injection, schedule: Q04DX004 (ip), vehicle: distilled water + Tween-80): 117 % of control

CN1[C@H]2C=CC(=O)[C@]1(Cl)[C@H]1C(=O)N(c3ccccc3)C(=O)[C@@H]21
T/C [6]: 102 % of control and 107 % of control
T/C [7]: 101 % of control and 107 % of control
T/C [8]: 95 % of control and 100 % of control
T/C [9]: 94 % of control
T/C (dose: 400.0 mg/kg/injection, schedule: Q04DX004 (ip), vehicle: saline with Tween-80): 101 % of control

CC(C)NCC(O)CC(c1ccccc1)c1ccccc1 (centres undefined)
T/C (dose: 12.5 mg/kg/injection, schedule: Q04DX004 (ip), vehicle: saline with Tween-80): 95 % of control
T/C [6]: 101 % of control
T/C [7]: 98 % of control
T/C [8]: 91 % of control

N#CC1C(=O)NC(=O)C(C#N)C1c1ccc(C2C(C#N)C(=O)NC(=O)C2C#N)cc1 (centres undefined)
T/C [1]: 100 % of control
T/C [2]: 97 % of control
T/C [3]: 100 % of control
T/C [4]: 96 % of control
T/C [5]: 100 % of control

COc1ccc(NC(=O)C2C(=O)C(=O)N(c3ccc(OC)cc3OC)C2=O)c(OC)c1 (centres undefined)
T/C [1]: 100 % of control
T/C [2]: 100 % of control
T/C [3]: 97 % of control

C1OC1CO[C@@H]1CO[C@H]2[C@@H]1OC[C@H]2OCC1CO1 (some centres undefined)
T/C (dose: 50.0 mg/kg/injection, schedule: Q04DX004 (ip), vehicle: saline): 119 % of control
T/C (dose: 50.0 mg/kg/injection, schedule: Q04DX004 (ip), vehicle: suspension in saline): 119 % of control
T/C (dose: 100.0 mg/kg/injection, schedule: Q04DX004 (ip), vehicle: suspension in saline): 150 % of control
T/C (dose: 200.0 mg/kg/injection, schedule: Q04DX004 (ip), vehicle: saline): 186 % of control
T/C (dose: 200.0 mg/kg/injection, schedule: Q04DX004 (ip), vehicle: suspension in saline): 215 % of control
T/C (dose: 400.0 mg/kg/injection, schedule: Q04DX004 (ip), vehicle: saline): 183 % of control
T/C (dose: 400.0 mg/kg/injection, schedule: Q04DX004 (ip), vehicle: suspension in saline): 239 % of control

S=C1CCCCN1
T/C (dose: 6.25 mg/kg/injection, schedule: Q04DX004 (ip), vehicle: distilled water + alcohol): 101 % of control
T/C (dose: 12.5 mg/kg/injection, schedule: Q04DX004 (ip), vehicle: distilled water + alcohol): 99 % of control
T/C (dose: 25.0 mg/kg/injection, schedule: Q04DX004 (ip), vehicle: distilled water + alcohol): 98 % of control and 103 % of control
T/C (dose: 50.0 mg/kg/injection, schedule: Q04DX004 (ip), vehicle: distilled water + alcohol): 92 % of control and 94 % of control and 100 % of control
T/C (dose: 100.0 mg/kg/injection, schedule: Q04DX004 (ip), vehicle: distilled water + alcohol): 88 % of control and 100 % of control (2×)

Clc1cccc(N(C2=NCCS2)C2=NCCS2)c1
T/C [1]: 107 % of control
T/C [2]: 101 % of control
T/C [3]: 101 % of control
T/C [4]: 96 % of control
T/C [5]: 92 % of control

O=C1NCC(Br)C(=O)N1 (centres undefined)
T/C (dose: 50.0 mg/kg/injection, schedule: Q04DX004 (ip), vehicle: saline + Tween-80 + alcohol): 95 % of control
T/C (dose: 100.0 mg/kg/injection, schedule: Q04DX004 (ip), vehicle: saline + Tween-80 + alcohol): 97 % of control
T/C (dose: 200.0 mg/kg/injection, schedule: Q04DX004 (ip), vehicle: saline + Tween-80 + alcohol): 94 % of control
T/C (dose: 400.0 mg/kg/injection, schedule: Q04DX004 (ip), vehicle: saline + Tween-80 + alcohol): 120 % of control

CCOC(=O)c1cc(-c2ccccc2)c(=O)c(OC)nc1-c1ccccc1
T/C (dose: 18.75 mg/kg/injection, schedule: Q04DX004 (ip), vehicle: saline with Tween-80): 87 % of control
T/C (dose: 37.5 mg/kg/injection, schedule: Q04DX004 (ip), vehicle: saline with Tween-80): 95 % of control
T/C (dose: 75.0 mg/kg/injection, schedule: Q04DX004 (ip), vehicle: saline with Tween-80): 93 % of control
T/C (dose: 150.0 mg/kg/injection, schedule: Q04DX004 (ip), vehicle: saline with Tween-80): 90 % of control

Nc1ccc2ccc(N)cc2c1
T/C [6]: 93 % of control
T/C [7]: 96 % of control
T/C [8]: 89 % of control
T/C [9]: 93 % of control
